Key:
[1] = test system: airway smooth muscle (ASM) tissues; assay: ASM constrictor responses to acetylcholine (organ bath, isometric tension); assay type: tissue-based, New Zealand White rabbits
Description: (§1) After anesthesia with xylazine (10 mg/kg) and ketamine (50 mg/kg), the animals were sacrificed with systemic air embolism.
(§2) After incubation, each airway segment was suspended longitudinally between stainless steel triangular supports in siliconized 20-mL organ baths (Harvard Apparatus, Inc., South Natick, Mass.). […] Care was taken to place the membranous portion of the trachea between the supports to maximize the recorded tension generated by the contracting trachealis muscle. […] Passive resting tension of each tracheal smooth muscle segment was set at 2.0 g after each tissue had been passively stretched to a tension of 8 g to optimize the resting length of each segment. The tissues were allowed to equilibrate in the bath for 45 minutes, at which time each tissue was primed with a 1 minute exposure to 10^−4M acetylcholine (ACh). Cholinergic contractility was initially assessed in the ASM by cumulative administration of ACh in final bath concentrations from 10^−9 to 10^−3M. […] The relaxant responses to isoproterenol were analyzed in terms of percent maximal relaxation (Rmax) from the active cholinergic contraction, and sensitivity to the relaxing agent was determined as the corresponding pD50 value associated with 50% Rmax.

human ASM cells = assay: Microarray mRNA expression (Affymetrix HU95GeneFL) in cultured ASM cells; assay type: cell-based
Description: Simultaneous multiple gene mRNA expression was examined in human ASM cells with the Affymetrix expression microarray system using human gene chips (HU95GeneFL array; Affymetrix, Santa Clara, Calif.) representing approximately 6000 genes. The ASM cells were derived from a donor (Clonetics Corp., San Diego, Calif.) who had no evidence of pulmonary disease, and the cells were carefully characterized by the manufacturer with specific markers to confirm their selective smooth muscle phenotype and to exclude contamination with other cell types.
Following incubation of the cells, the total RNA used for the Affymetrix microarray expression analysis was extracted and purified using commercially available reagents and in accordance with methods recommended by the manufacturer (Affymetrix, Santa Clara, Calif.). Briefly, total RNA was extracted using Trizol and purified with Qiagen RNAEASY spin columns (Qiagen GmbH, Germany). Approximately 5 μg of RNA was used for first and second strand cDNA synthesis. After precipitation, the cDNAs were transcribed to cRNAs. The biotinylated cRNA was subsequently hybridized to the Affymetrix gene chips overnight. Non-bound probes were removed by stringency washing. The hybridized chips were developed using a Streptavidin-Phycoerythrin complex and scanned. The scanned images were then analyzed with Affymetrix software and the data was examined using commercially available software programs, including Spotfire Net 5.1 (Spotfire Inc, Mass.).

[2] = test system: airway smooth muscle (ASM) tissues; assay: ASM relaxant responses to isoproterenol after half-maximal ACh contraction (organ bath); assay type: tissue-based, New Zealand White rabbits; conditions: control ASM
Description: as §1, §2

[3] = control ASM (medium alone), mean±SE

With `CC(=O)OCC[N+](C)(C)C` [ACh, acetylcholine] the “maximal isometric force of contraction (Tmax) to ACh” value [1, 3] was 93.7±8.9 g/g ASM weight and the “pD50 (−log ED50) for ACh” value [1, 3] was 4.66±0.12 −logM.

With `C[C@@H]1C[C@H]2[C@@H]3CCC4=CC(=O)C=C[C@]4(C)[C@@]3(F)[C@@H](O)C[C@]2(C)[C@@]1(O)C(=O)CO` [DEX, dexamethasone] the “MER, ABCB2” value (human ASM cells; ATP-binding cassette, ABCB2/X57522, IL-1β/TNFα, presence or absence of DEX 10^−5M) was 1.75, the “MER, AMPD3” value (human ASM cells; Adenosine monophosphate deaminase, AMPD3/D12775, IL-1β/TNFα, presence versus absence of DEX 10^−5M) was 0.82 and the “MER, BCL2A1” value (human ASM cells; BCL2-related protein A1, BCL2A1/U29680, IL-1β/TNFα, presence versus absence of DEX 10^−5M) was 0.41. For the same compound, the “MER, BKR2” value (human ASM cells; Bradykinin receptor-2, BKR2/X86163, IL-1β/TNFα, presence versus absence of DEX 10^−5M) was 0.62, the “MER, CD83” value (human ASM cells; CD83, CD83/Z11697, IL-1β/TNFα, presence versus absence of DEX 10^−5M) was 0.56 and the “MER, CKS2” value (human ASM cells; CDC28 protein kinase-2, CKS2/X54942, IL-1β/TNFα, presence versus absence of DEX 10^−5M) was 0.80. For the same compound, the “MER, CEBPD” value (human ASM cells; Enhancer binding protein, CEBPD/M83667, IL-1β/TNFα, presence or absence of DEX 10^−5M) was 1.48, the “MER, FGF2” value (human ASM cells; Fibroblast growth factor-2, FGF2/J04513, IL-1β/TNFα, presence versus absence of DEX 10^−5M) was 0.69 and the “MER, GBP1” value (human ASM cells; Guanylate binding protein-1, GBP1/M55542, IL-1β/TNFα, presence or absence of DEX 10^−5M) was 1.22. For the same compound, the “MER, HSD11B1” value (human ASM cells; Hydroxysteroid (11-β) dehydrogenase-1, HSD11B1/M7665, IL-1β/TNFα, presence or absence of DEX 10^−5M) was 2.57, the “MER, INHBA” value (human ASM cells; Inhibin, INHBA/X57579, IL-1β/TNFα, presence versus absence of DEX 10^−5M) was 0.00 and the “MER, ICAM-1” value (human ASM cells; Intercellular adhesion molecule-1, ICAM-1/M24283, mRNA elicited by IL-1β/TNFα in presence versus absence of DEX 10^−5M) was 0.66. The “MER, IL-6” value (human ASM cells; Interleukin-6, IL-6/X04602, IL-1β/TNFα, presence versus absence of DEX 10^−5M) was 0.89, the “MER, IL-8” value (human ASM cells; Interleukin-8, IL-8/M28130, IL-1β/TNFα, presence versus absence of DEX 10^−5M) was 0.57 and the “MER, Interleukin-13 receptor-α” value (human ASM cells; Interleukin-13 receptor-α, IL-1 RA2/U70981, IL-1β/TNFα, presence versus absence of DEX 10^−5M) was 0.00. The “MER, KIAA0247” value (human ASM cells; KIAA0247 gene product, KIAA0247/D87434, IL-1β/TNFα, presence or absence of DEX 10^−5M) was 1.3, the “MER, MMP3” value (human ASM cells; Matrix metalloproteinase-3, MMP3/X05232, IL-1β/TNFα, presence versus absence of DEX 10^−5M) was 0.70 and the “MER, MMP10” value (human ASM cells; Matrix metalloproteinase-10, MMP10/X07820, IL-1β/TNFα, presence versus absence of DEX 10^−5M) was 0.00. The “MER, MMP12” value (human ASM cells; Matrix metalloproteinase-12, MMP12/L23808, IL-1β/TNFα, presence versus absence of DEX 10^−5M) was 0.20, the “MER, MAP3K5” value (human ASM cells; Mitogen-activated protein kinase kinase kinase-5, MAP3K5/U67156, IL-1β/TNFα, presence or absence of DEX 10^−5M) was 1.65 and the “MER, MDCP” value (human ASM cells; Monocyte-derived chemotactic protein, MDCP/HG4069, IL-1β/TNFα, presence versus absence of DEX 10^−5M) was 0.29. For the same compound, the “MER, NAF1” value (human ASM cells; Nef-associated factor 1, NAF1/D30755, IL-1β/TNFα, presence versus absence of DEX 10^−5M) was 0.88, the “MER, NINJ1” value (human ASM cells; Ninjurin-1, NINJ1/U72661, IL-1β/TNFα, presence versus absence of DEX 10^−5M) was 0.59 and the “MER, NFATC1” value (human ASM cells; Nuclear factor of activated T cells-C1, NFATC1/U08015, IL-1β/TNFα, presence versus absence of DEX 10^−5M) was 0.61. The “MER, NFKB1” value (human ASM cells; Nuclear factor of kappa light polypeptide, NFKB1/M58603, IL-1β/TNFα, presence versus absence of DEX 10^−5M) was 0.87, the “MER, NR4A3” value (human ASM cells; Nuclear receptor subfamily 4, NR4A3/U12767, IL-1β/TNFα, presence versus absence of DEX 10^−5M) was 0.54 and the “MER, PTX3” value (human ASM cells; PTX3 promoter, PTX3/X97748, IL-1β/TNFα, presence versus absence of DEX 10^−5M) was 0.69. For the same compound, the “MER, PDE4B” value (human ASM cells; Phosphodiesterase-4B, PDE4B/L20971, IL-1β/TNFα, presence versus absence of DEX 10^−5M) was 0.40, the “MER, ATP2B1” value (human ASM cells; Plasma membrane Ca^2+ ATPase, ATP2B1/J04027, IL-1β/TNFα, presence versus absence of DEX 10^−5M) was 0.34 and the “MER, PBEF” value (human ASM cells; Pre-B cell colony-enhancing factor, PBEF/U02020, IL-1β/TNFα, presence versus absence of DEX 10^−5M) was 0.73. For the same compound, the “MER, G0S2” value (human ASM cells; Putative lymphocyte G0/G1 switch gene, G0S2/M72885, IL-1β/TNFα, presence versus absence of DEX 10^−5M) was 0.65, the “MER, RANTES” value (human ASM cells; RANTES, RANTES/M21121, IL-1β/TNFα, presence versus absence of DEX 10^−5M) was 0.67 and the “MER, STAT5A” value (human ASM cells; Signal transducer/activator of transcription 5, STAT5A/U43185, IL-1β/TNFα, presence versus absence of DEX 10^−5M) was 0.87. The “MER, SCYA7” value (human ASM cells; Small inducible cytokine subfamily A7, SCYA7/X72308, IL-1β/TNFα, presence versus absence of DEX 10^−5M) was 0.50, the “MER, SCYB2” value (human ASM cells; Small inducible cytokine subfamily B2, SCYB2/M57731, IL-1β/TNFα, presence versus absence of DEX 10^−5M) was 0.52 and the “MER, SCYB3” value (human ASM cells; Small inducible cytokine subfamily B3, SCYB3/X53800, IL-1β/TNFα, presence versus absence of DEX 10^−5M) was 0.83. For the same compound, the “MER, SCYB6” value (human ASM cells; Small inducible cytokine subfamily B6, SCYB6/U83303, IL-1β/TNFα, presence versus absence of DEX 10^−5M) was 0.61, the “MER, SCYB10” value (human ASM cells; Small inducible cytokine subfamily B10, SCYB10/X02530, IL-1β/TNFα, presence or absence of DEX 10^−5M) was 1.12 and the “MER, SCYB5” value (human ASM cells; Small inducible subfamily B5, SCYB5/L37036, IL-1β/TNFα, presence or absence of DEX 10^−5M) was 1.75. For the same compound, the “MER, SOD2” value (human ASM cells; Superoxide dismutase-2, SOD2/X07834, IL-1β/TNFα, presence versus absence of DEX 10^−5M) was 0.89, the “MER, Tenascin C” value (human ASM cells; Tenascin C, HXB/X78565, IL-1β/TNFα, presence or absence of DEX 10^−5M) was 1.21 and the “MER, TNF-αIP3” value (human ASM cells; Tumor necrosis factor-α-induced protein 3, TNF-αIP3/M59465, IL-1β/TNFα, presence or absence of DEX 10^−5M) was 1.21. The “MER, TNF-αIP6” value (human ASM cells; Tumor necrosis factor-α-induced protein 6, TNF-αIP6/M31165, IL-1β/TNFα, presence or absence of DEX 10^−5M) was 1.11, the “MER, uPA” value (human ASM cells; Urokinase plasminogen activator, uPA/X02419, IL-1β/TNFα, presence versus absence of DEX 10^−5M) was 0.00 and the “inhibition of IL-1β/TNFα induced mRNA expression, p50-NF-kB gene” value (human ASM cells; in the presence of DEX 10^−5M) was 51%. The “inhibition of IL-1β/TNFα induced mRNA expression, phosphodiesterase D4 gene” value (human ASM cells; in the presence of DEX 10^−5M) was 60%, the “inhibition of IL-1β/TNFα induced mRNA expression, plasma membrane Ca^2+ ATPase gene” value (human ASM cells; in the presence of DEX 10^−5M) was 66% and the “MER, pro-Interleukin-1β” value (human ASM cells; pro-Interleukin-1β, IL-1β/X04500, IL-1β/TNFα, presence versus absence of DEX 10^−5M) was 0.45. The “effect on constrictor responses to ACh in control tissues” value ([1]; DEX 10^−5M alone) was “no effect” and the “Tmax to ACh” value ([1]; IL-1β/TNFα exposed ASM pre-treated 1 hour with DEX 10^−5M, mean±SE) was 102.9±13.1 g/g ASM weight.

For `CC(C)NCC(O)c1ccc(O)c(O)c1` (stereo not drawn) [isoproterenol], the EC50 ([2]; Oryctolagus cuniculus, read-out: pD50 for isoproterenol (converted)) was 0.813 µM and the “maximal relaxation (Rmax) to isoproterenol” value [2] was 57.7±7.1%.

From patent US7435548B2, “Methods for producing ex vivo models for inflammatory disease and uses thereof” (deCODE genetics ehf., priority 2001, dated 2008)
